Measurements from patent EP0797564B1, “LIGNANS, A PROCESS FOR THEIR PRODUCTION AND PHARMACEUTICAL COMPOSITIONS AND USES THEREOF” (KANOLDT ARZNEIMITTEL GMBH, priority 1995, dated 1997).

Tests used:
[1] = target: T1, SHBG (Homo sapiens, UniProt P04278); experiment: Concentration dependence: remaining SHBG activity to 5α-dihydrotestosterone (DHT) with varying concentrations of the compounds; assay type: binding; conditions: DHT concentration of 9.6 nM
T1 sequence (P04278 30-402): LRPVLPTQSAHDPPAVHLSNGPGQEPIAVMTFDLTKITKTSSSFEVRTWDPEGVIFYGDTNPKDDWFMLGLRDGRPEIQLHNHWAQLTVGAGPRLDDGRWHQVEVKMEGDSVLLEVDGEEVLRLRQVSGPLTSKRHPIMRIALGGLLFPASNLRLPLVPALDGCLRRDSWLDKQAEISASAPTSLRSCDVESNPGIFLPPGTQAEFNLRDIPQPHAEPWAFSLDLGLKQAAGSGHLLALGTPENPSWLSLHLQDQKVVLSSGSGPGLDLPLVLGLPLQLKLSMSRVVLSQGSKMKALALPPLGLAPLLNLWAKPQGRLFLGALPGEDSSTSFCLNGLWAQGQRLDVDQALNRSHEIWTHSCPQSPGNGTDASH
Protocol: In order to determine the strength of the interaction of the compounds produced according to the present invention, tests were carried out investigating remaining SHBG activity to 5α-dihydrotestosterone (DHT) with varying concentrations of the compounds, DHT being a natural hormone that binds with SHBG.

[2] = target: T1, SHBG; experiment: Estimation of equilibrium (association) constants Ka inhibitor/SHBG, assuming competitive binding; conditions: association constant inhibitor/SHBG; Table 3
Excerpt: With the assumption of competitive binding the estimation of equilibrium constants is possible. Two reactions exist in competition with one another: [drawing 50] [drawing 51]

Compound | Remaining SHBG Activity ([1]; @ 6.2*10^-4M compound) [% @ 6.2*10^-4M] | Remaining SHBG Activity ([1]; @ 3.2*10^-4M compound) [% @ 3.2*10^-4M] | Ka [2] [M⁻¹] | Remaining SHBG Activity ([1]; @ 6*10^-4M compound) [% @ 6*10^-4M]
COc1cc(CC2COC(C)(C)OCC2Cc2ccc(O)c(OC)c2)ccc1O (centres unmarked) [III'a] | 75 |  |  | 
COc1cc(CC(CO)C(CO)Cc2ccc(O)c(OC)c2)ccc1O (centres unmarked) [IIIa] |  | 50 | 20000 | 
COC(=O)C(Cc1ccc(O)c(OC)c1)C(Cc1ccc(O)c(OC)c1)C(=O)OC (centres unmarked) [IIa] |  |  | 60000 | 30
